Assay results from patent US11865157B2, “Compositions and methods of targeting cancer stem cells” (University of Houston System, priority 2016, dated 2024).
Entries after “also recorded” stand apart in the source; their conditions may differ. Numbered stars: 1 amine (or outer) side, 2 acyl side, 3 side chain; on linkers, the order of the positions; unused ones are H or OH. Bridge positions count the residues as written; N and C are the ends. Square brackets hold non-standard residues; d marks the D form. Peptide text beside a SMILES is read from it. I, II: the chains in the order shown. Gly(N-piperonyl) = O=C(O)CNCc1ccc2c(c1)OCO2; X1 = CC(c1ccccc1)N(CC(=O)[*:2])[*:1]; Nlys = NCCCCNCC(=O)O; Nme = COCCNCC(=O)O

Key:
Assay type in all cases: cell-based
[1] = tested on: H358 cells; assay: Clonogenicity assay under treatment; conditions: 2 weeks
Protocol: To further validate that PCS2D1 inhibiting CSCs, the effects of PCS2D1 against a stem-cell-associated phenotype were studied with regards to the capacity to form colonies from a single cell by using the clonogenicity assay. About 300 cells were plated onto 35 mm cell culture plates with either 0, 1, 10, 30, or 100 μM of PCS2D1, and allowed to grow for 2 weeks. After staining with crystal violet, both the number of colonies and the overall morphology of the colonies were evaluated.
(§1) The clonogenicity assay was repeated with H358 cells, 500 cells/well, using 0, 10, 30 and 100 μM PCS2 treatment over 2 weeks. […] To confirm that this was due to the specific targeting on CSCs, the clonogenicity assay was performed again over 8 days, with the treatment performed from day 7 to 8 instead, to allow the colonies to establish. This was done alongside control cells plated on chamber slides and then grown under the same conditions.

[2] = tested on: H358 unsorted cells; assay: Scratch (wound healing) assay; conditions: 10 μM and higher, 24 hours
Protocol: Another stem-cell-associated phenotype is the capacity of stem cells to migrate and repair gaps in a tissue or cell culture. To determine if this capacity is affected by PCS2D1, a scratch (would healing) assay was performed on H358 cells after 24 hour treatment of 0, 0.3, 1, 3 10, 30 or 100 μM of PCS2D1. Each well of confluent H358 unsorted cells was scratched using a 1000 μL pipet tip, washed, then treated with PCS2D1 for 24 hours. Each well was then stained, and the average area of the remaining scratch was calculated from a microscope viewing window near the center of the well.

[3] = tested on: H358 ALDH− cells; assay: MTS survival assay on sorted cells
Protocol: To verify that PCS2-treatment has a direct effect on the survival of CSCs, an MTS survival assay was performed on sorted H358 cells. The assay is based on the reduction of MTS tetrazolium compound by viable cells to generate a colored formazan product that is soluble in cell culture media. This conversion is thought to be carried out by NAD(P)H-dependent dehydrogenase enzymes in metabolically active cells. The formazan dye produced by viable cells was quantified by measuring the absorbance at 490-500 nm. H358 cells were stained using the ALDEFluor, then the ALDH+ cells were isolated by the MD Anderson Flow Cytometry and Cell Sorting core. The sorted ALDH+ cells were treated with 1 nM to 100 μM of PCS2D1 for 24 hours, and then the relative amount of surviving cells was determined by MTS. The number of cells in the ALDH+ fraction decreased under the treatment of PCS2D1, while ALDH^− cells were unaffected (FIG. 10). […] Furthermore, this peptoid is still at the initial stage of development and further modifications can be made to optimize and increase the potency.
To verify that PCS2-treatment has a direct effect on the survival of CSCs, an MTS survival assay was performed on sorted H358 cells as described in Example 4. The number of cells in the ALDH+ fraction decreased under the treatment of PCS2D1, while ALDH^− cells were unaffected (FIG. 21). The IC50 was around 2 μM. […]

[4] = tested on: unsorted H358 cells; assay: Expression of CSC markers after treatment; conditions: 100 μM, after 96 hours of treatment
[5] = tested on: H358 colonies; assay: Variation of the clonogenicity assay: treatment of established colonies, crystal violet and ALDEFluor staining
Protocol: Another set of experiments were designed to evaluate if differentiated cells from CSCs were targeted by PCS2D1 as well. A variation of the clonogenicity assay was performed, where about 300 unsorted H358 cells were plated to 35 mm plates each and allowed to form colonies for 7 days. After that time, the colonies were treated with either 0, 1, 10, 30, or 100 μM of PCS2D1 for 24 hours, and then stained with crystal violet. The colonies were examined under a microscope. […] To determine if the cells lost are CSCs or the differentiated cells, ALDEFluor staining was performed against some of the colonies at 0 and 100 μM treatment.
as §1

[6] = tested on: unsorted H358 cells; assay: MTS cell-proliferation assay on unsorted cells
Protocol: Further experiments were conducted to evaluate how PCS2 affects the proliferation of unsorted cancer cell populations. The standard MTS cell-proliferation assay was performed on unsorted H358 cells (known to contain 5-15% of CSCs) and measured proliferation rates over 6 days, at concentrations ranging from 100 nM to 100 μM of PCS2D1.

`COCCNCC(=O)N(CCCCN)CC(=O)N(CC(=O)N(CC(=O)N(CCCCN)CC(=O)N[C@@H](CCCCN)C(=O)N[C@H](CCCCN)C(=O)N[C@@H](CCSC)C(=O)NCCCC[C@H](NC(=O)[C@H](CCSC)NC(=O)[C@@H](CCCCN)NC(=O)[C@H](CCCCN)NC(=O)CN(CCCCN)C(=O)CN(C(=O)CN(Cc1ccc2c(c1)OCO2)C(=O)CN(CCCCN)C(=O)CNCCOC)C(C)c1ccccc1)C(N)=O)C(C)c1ccccc1)Cc1ccc2c(c1)OCO2` (stereo partly drawn) [PCS2D1] (I: H-[Nme][Nlys][Gly(N-piperonyl)][X1][Nlys]K[dK]MK-NH2 / II: H-[Nme][Nlys][Gly(N-piperonyl)][X1][Nlys]K[dK]M; amide I:9-II:C; N-terminus and C-terminus assumed) was tested, and the “morphology of the colonies” value ([1]; 10 μM) was “significantly more dispersed colonies”, the colonies formed ([1]; about 300 cells, 30 and 100 μM) was “significant decrease in colonies formed” and the “migration (area of remaining scratch)” value [2] was “migration was significantly inhibited”. The “effect on ALDH− cells” value [3] was “unaffected”, the “expression of ALDH1A3” value [4] was “significant drop” and the “expression of PLEC” value [4] was “significant drop”. The “expression of SOX2” value [4] was “significant drop”, the “ALDH fluorescence of colonies” value ([5]; 100 μM, ALDEFluor staining) was “no significant fluorescence; also recorded: complete loss of ALDH^+ cells” and the “ALDH fluorescent cell number” value ([5]; 10-30 μM, Aldefluor assay) was “reduction in fluorescent cell number”. For the same molecule, the “loss of cells from the colony center” value ([5]; colonies grown 7 days, then 24 hours treatment at 10 μM and higher) was “significant loss of cells from the colony center; also recorded: significant loss of “central” cells”, the “overall growth of the H358 cell line” value ([6]; 30 μM and higher, by day 2) was “significantly decreased” and the “growth of the H358 cell line” value ([6]; 100 μM, over 6 days) was “no significant growth”.
